# Assay results from ChEMBL document CHEMBL1151381, “Aporphine Alkaloids From Annona acuminata” (1982).
# System: KB
# Assay: Cytotoxicity against human KB cells
# Type: functional
# Conditions: read-out: ED50 (the source's name)
row,Structure (SMILES),EC50
1,COc1c(OC)c2c3c(nccc3c1OC)C(=O)c1ccccc1-2 [HOMOMOSCHATOLINE],> 10 µg/mL
2,O=C1c2ccccc2-c2c3c(cc4ccnc1c24)OCO3 [LIRIODENINE],3.1 µg/mL
3,COc1cc2ccnc3c2c(c1OC)-c1ccccc1C3=O [LYSICAMINE],> 10 µg/mL
